From patent US20260297029A1, “ALKOXY AND CARBAMOYL QUATERNARY AMINE SALTS AS PRODRUGS OF TRYPTAMINES” (priority 2023, published 2026)
Converted amounts (≈) assume the structure as drawn. Read-outs that look alike come from different tables or passages of the source.

How the values were obtained:
physchem [1] = assay type: physicochemical
Description: The half-life of the compounds was measured in PBS (pH 6.5), simulated gastric fluid (SGF) with pepsin, and SGF without pepsin.

serotonin receptors = conditions: cited from earlier work
physchem [2] = assay type: physicochemical; conditions: FaSSIF, RT, 30 mM DMSO stock, value close to or above 300 μM may mean solubility at or above 300 μM
Description: Solubility measurements were taken according to the steps as followed:
2. Preparation of Stock Solution: The stock solution of test compounds was prepared in dimethyl sulfoxide (DMSO) at the concentration of 30 mM. The stock solution of control compound was prepared in DMSO at the concentration of 30 mM. Diclofenac sodium was used as positive control in the assay.
3. Procedures for Solubility Determination: 10 μL stock solution of each compound was placed in order into their proper 96-well rack, followed by adding 990 μL of FaSSIF into each vial of the cap-less Solubility Sample plate. This study was performed in duplicate. One stir stick was added to each vial and then vials were sealed using a molded PTDE/SIL 96-Well Plate Cover. The Solubility Sample plate was transferred to the Thermomixer Comfort plate shaker and incubated at RT for 2 hours with shaking at 1100 rpm. After 2 hours incubation, stir sticks were removed using a big magnet and all samples from the Solubility Sample plate were transferred into the filter plate. All the samples were filtered by using the Vacuum Manifold. An aliquot of 10 μL of the filtered samples were diluted with 980 μL of methanol and 10 μL of DMSO. The dilution factor might be changed according to the solubility value and the LC/MS signal response.
5. Sample Analysis: Samples were analyzed by LC-MS/MS.
[formula] • with DF as the dilution factor.

in vitro = in vitro ADME; conditions: for Remaining Percentage / remaining at 0.25 h / remaining at 0.5 h / remaining at 1 h / remaining at 2 h: mouse plasma; for Remaining Percentage: 0 min; for remaining at 0.25 h: 15 min; for remaining at 0.25 h / remaining at 0.5 h / remaining at 1 h / remaining at 2 h: read-out: Remaining Percentage; for remaining at 0.5 h: 30 min; for remaining at 1 h: 60 min; for remaining at 2 h: 120 min; for half-life: mouse, plasma
[3] = SGF with pepsin, 30 min, read-out: Remaining Percentage
[4] = SGF with pepsin, 60 min, read-out: Remaining Percentage
[5] = SGF with pepsin, 120 min, read-out: Remaining Percentage
[6] = SGF with pepsin, 240 min, read-out: Remaining Percentage
[7] = SGF with pepsin, if calculated T1/2 < 0, reported as 9999 min, read-out: T1/2
[8] = SGF without pepsin, 30 min, read-out: Remaining Percentage
[9] = SGF without pepsin, 60 min, read-out: Remaining Percentage
[10] = SGF without pepsin, 120 min, read-out: Remaining Percentage
[11] = SGF without pepsin, 240 min, read-out: Remaining Percentage
[12] = SGF without pepsin, if calculated T1/2 < 0, reported as 9999 min, read-out: T1/2
[13] = only time points within the initial rate used where fast then slow disappearance, read-out: T1/2
[14] = text statement of Table 4 value, read-out: half-life in mouse plasma
[15] = PBS (pH 6.5), 30 min, read-out: Remaining Percentage
[16] = PBS (pH 6.5), 60 min, read-out: Remaining Percentage
[17] = PBS (pH 6.5), 120 min, read-out: Remaining Percentage
[18] = PBS (pH 6.5), 240 min, read-out: Remaining Percentage
[19] = PBS (pH 6.5), SGF with pepsin, SGF without pepsin

| SMILES | Remaining Percentage (physchem [1]; SGF with pepsin, 0 min) [%] | remaining at 0.5 h (physchem [1]; [3]) [%] | remaining at 1 h (physchem [1]; [4]) [%] | remaining at 2 h (physchem [1]; [5]) [%] | remaining at 4 h (physchem [1]; [6]) [%] | Remaining Percentage (physchem [1]; SGF without pepsin, 0 min) [%] | remaining at 0.5 h (physchem [1]; [8]) [%] | remaining at 1 h (physchem [1]; [9]) [%] | remaining at 2 h (physchem [1]; [10]) [%] | remaining at 4 h (physchem [1]; [11]) [%] | activity at select serotonin receptors (serotonin receptors) | solubility kinetic at 2 h (physchem [2]) [µM] | Remaining Percentage (in vitro) [%] | remaining at 0.25 h (in vitro) [%] | remaining at 0.5 h (in vitro) [%] | remaining at 1 h (in vitro) [%] | remaining at 2 h (in vitro) [%] | half-life (in vitro; [13]) [min] | also measured |
| --- | --- | --- | --- | --- | --- | --- | --- | --- | --- | --- | --- | --- | --- | --- | --- | --- | --- | --- | --- |
| CC[C@H]1OC(=O)[C@H](C)[C@@H](O[C@H]2C[C@@](C)(OC)[C@@H](O)[C@H](C)O2)[C@H](C)[C@@H](O[C@@H]2O[C@H](C)C[C@H](N(C)C)[C@H]2O)[C@](C)(O)C[C@@H](C)C(=O)[C@H](C)[C@@H](O)[C@]1(C)O [Erythromycin, reference compound] | 100.00 | 52.6 | 30.5 | 9.74 | 1 | 100.00 | 54.5 | 29.1 | 9.44 | 1.05 |  |  |  |  |  |  |  |  | half-life (physchem [1]; [7]): 0.6 h; half-life (physchem [1]; [12]): 0.61 h |
| COc1ccc2[nH]cc(CCN(C)C)c2c1 [Compound 5-MeO-DMT, 5-methoxy-DMT] |  |  |  |  |  |  |  |  |  |  |  |  |  |  |  |  |  |  | activity at select serotonin receptors (serotonin receptors; bind select serotonin receptors in the active state): agonists or partial agonists |
| CN(C)CCc1c[nH]c2cccc(O)c12 [psilocin, 4-hydroxy-DMT] |  |  |  |  |  |  |  |  |  |  | agonists or partial agonists |  |  |  |  |  |  |  |  |
| O=C(O)Cc1ccccc1Nc1c(Cl)cccc1Cl [Diclofenac, reference compound] |  |  |  |  |  |  |  |  |  |  |  | 276 (≈ 81.7 µg/mL) |  |  |  |  |  |  |  |
| CN(C)CCc1c[nH]c2cccc(OP(=O)(O)O)c12 [psilocybin] |  |  |  |  |  |  |  |  |  |  | agonists or partial agonists |  |  |  |  |  |  |  |  |
| CN(C)C(=O)OC[N+](C)(C)CCc1c[nH]c2ccccc12 [Compound 1, N-(((dimethylcarbamoyl)oxy)methyl)-2-(1H-indol-3-yl)-N,N-dimethylethan-1-aminium] | 100.00 | 101 | 100 | 97.2 | 108 | 100.00 | 105 | 100 | 104 | 100 |  | 290 | 100.00 | 97.5 | 92.6 | 90.2 | 58.3 | 156 | half-life (in vitro; [14]): 155 min; Remaining Percentage (physchem [1]; PBS (pH 6.5), 0 min): 100.00%; remaining at 0.5 h (physchem [1]; [15]): 97.7%; remaining at 1 h (physchem [1]; [16]): 108%; remaining at 2 h (physchem [1]; [17]): 107%; remaining at 4 h (physchem [1]; [18]): 108%; Stability in the environment of a stomach and in the presence of pepsin (physchem [1]; [19]): does not degrade in the environment of a stomach nor in the presence of pepsin; half-life (physchem [1]; [12]): 261 h |
| CC(C)[N+](C)(CCOC(=O)C1c2ccccc2Oc2ccccc21)C(C)C [Propantheline, reference compound] |  |  |  |  |  |  |  |  |  |  |  |  | 100.00 | 86 | 67.2 | 35 | 8.48 | 32.8 |  |
| O=C(O)CCCc1ccc(N(CCCl)CCCl)cc1 [Chlorambucil, reference compound] |  |  |  |  |  |  |  |  |  |  |  |  |  |  |  |  |  |  | Remaining Percentage (physchem [1]; pH 6.5): 100.00%; half-life (physchem [1]; pbs, pH 6.5): 0.694 h; remaining at 0.5 h (physchem [1]; pbs, pH 6.5): 59.4%; remaining at 1 h (physchem [1]; pbs, pH 6.5): 37.1%; remaining at 2 h (physchem [1]; pbs, pH 6.5): 13.6%; remaining at 4 h (physchem [1]; pbs, pH 6.5): 1.83% |
| CN(C)CCc1c[nH]c2ccccc12 [DMT, N, N-dimethyltryptamine] |  |  |  |  |  |  |  |  |  |  | agonists or partial agonists |  |  |  |  |  |  |  |  |
| CC(C)(C)C(=O)OC[N+](C)(C)CCc1c[nH]c2ccccc12 [Compound 2, 2-(1H-indol-3-y1)-N,N-dimethy1-N-((pivaloyloxy)methyl)ethan-1-aminium] | 100.00 | 94.3 | 104 | 96.6 | 96.1 | 100.00 | 90.7 | 97.3 | 104 | 104 |  | 314 | 100.00 | 24.4 | 7.66 | 1.13 | 0 | 9.41 | half-life (in vitro; [14]): 9.4 min; Remaining Percentage (physchem [1]; PBS (pH 6.5), 0 min): 100.00%; remaining at 0.5 h (physchem [1]; [15]): 97.4%; remaining at 1 h (physchem [1]; [16]): 101%; remaining at 2 h (physchem [1]; [17]): 98.3%; remaining at 4 h (physchem [1]; [18]): 95.3%; Stability in the environment of a stomach and in the presence of pepsin (physchem [1]; [19]): does not degrade in the environment of a stomach nor in the presence of pepsin; half-life (physchem [1]; PBS (pH 6.5), if calculated T1/2 < 0, reported as 9999 min, read-out: T1/2): 63.2 h; half-life (physchem [1]; [7]): 88.8 h |
